# Structures can show the parent of a compound that is named as a salt.
# Legend:
# [1] = test system: MCF-7adr; test: MTT cytotoxicity assay and reversal of MDR in MCF-7adr; assay type: cell-based, human
# Source text: (§1) A panel of parental cancer cell line and their daughter resistant cell lines, displaying MDR phenotype were used in this study. Human ovarian cancer cell line SKOV-3, breast cancer cell line MCF-7 and colon cancer cell line SW480, the osteosarcoma cell line U-2OS, KHOS, uterine sarcoma cell line MESSA and its doxorubicin selected drug resistant cell line MESSA/Dx5, non-small cell lung cancer cell line H-69 and its doxorubicin selected drug resistant cell line H-69AR (overexpress MRP1) were obtained from the ATCC (Rockville, Md.). Dr. Efstathios Gonos (Institute of Biological Research & Biotechnology, Athens, Greece) provided the doxorubicin resistant U-2OS R2 (referred in the text below as U-2OSDR), KHOS R2 cell lines. Dr. Erasmus Schneider (Wadsworth Center, Albany) provided the mitoxantrane resistant breast cancer MCF-7/MX (overexpress BCRP) cell line. All the cell lines were cultured in RPMI 1640 (Invitrogen, Carlsbad, Calif.) supplemented with 10% fetal bovine serum, 100-units/ml penicillin and 100 μg/ml streptomycin (Invitrogen). Cells were incubated at 37° C. in 5% CO2-95% air atmosphere and passaged when near confluent monolayers were achieved using 2% trypsin-EDTA solution. […] The fresh chemotherapy drugs were obtained from the pharmacy at the Massachusetts General Hospital and stored at −20° C.
# (§2) To evaluate for reversal of Pgp-mediated MDR, SKOV-3TR, MCF-7adr and SW480TR cell lines were seeded into 96-well tissue culture plate at 2,000 cells per well with varying concentrations of chemotherapy drugs and NSC23925b for 6 days. Cell proliferation IC50 (concentration required for 50% inhibition) and MDR reversal IC50 were determined from dose-response curves carried out in triplicate in 96-well plate. Fold of reverse resistance for individual drugs were defined as the IC50 of MDR cells without NSC23925b treatment divided by the IC50 of MDR cells treated with NSC23925b. […] Drug cytotoxicity was assessed in vitro using the MTT assay as previously described. […] Response curves were fitted with use of GraphPad PRISM 4 software (GraphPad Software).
# MCF-7adr and SW480TR cells were treated with paclitaxel (FIGS. 2A-B), doxorubicin (FIGS. 2C-D) or mitoxantrane (FIGS. 2E-F) and NSC23925b in RPMI1640 complete media at the indicated concentrations. The relative sensitivity of each line to the indicated drugs was determined by MTT analysis 6 days post-treatment.
# [2] = test system: SW480TR; test: M30-Apoptosense ELISA apoptosis assay in SW480TR; assay type: cell-based, human; conditions: NSC23925b 1 μM with doxorubicin 0.5 μM, 72 hours
# Description: (§3) Apoptosis was evaluated using the M30-Apoptosense ELISA assay kit (Peviva AB, Bromma, Sweden) according to the manufacturer's instructions. For the doxorubicin and NSC23925b treatment, MCF-7adr or SW480TR cells were seeded at 8,000 cells/per well in a 96-well plate for 24 hours before treatment. The cells were then treated with 0.5 μM of doxorubicin, 1 μM of NSC23925b, or a combination of the two drugs for an additional 72 hours. The cells were then lysed by an additional […] of 10% NP40 per well, following the manufacturer's instructions for apoptosis assay.
# (§4) The effect of NSC23925b on the doxorubicin induction of apoptosis was assessed in MCF-7adr or SW480TR. cell lines. Cells were treated with either doxorubicin (0.5 μM) alone, NSC23925b (1 μM) alone, or a combination of doxorubicin and NSC23925b for 72 hours. Apoptosis was scored using the M30-Apoptosense ELISA assay.
# [3] = Solubility in organic solvents; assay type: physicochemical
# [4] = test system: SKOV-3TR xenograft tumors; test: SKOV-3TR xenograft tumor growth in nude mice
# Description: The Crl:SHO-Prkdc^SCIDHr^hr nude female mice at approximately 3-4 weeks of age were purchased from The Charles River Laboratories (Ann Arbor, Mich.). Animal studies were carried out with protocols approved by the Massachusetts General Hospital Subcommittee on Research Animal Care (SRAC). To determine the effect of NSC23925b on paclitaxel sensitivity in xenograft model, 5×10^6 SKOV-3TR cells were injected subcutaneously with matrigel (BD Biosciences, San Jose, Calif.) on day one. Two weeks after injection, the mice were divided into four groups to start the treatments. Group one was received intraperitoneal (i.p) injection with normal saline, group two with paclitaxel (20 mg/kg), group three with NSC23925b (40 mg/kg). […] All four groups were treated twice a week for two weeks. The health of the mice and evidence of tumor growth were examined daily. Tumors were measured twice a week with a digital caliper. Tumor volume (mm^3) was calculated as (W^2×L)/2, where W is width and L is length. The curve of tumor growth was drawn according to tumor volume by using of GraphPad PRISM 4 software.
# To further evaluate the effects of NSC23925b and paclitaxel combination therapy on the tumor growth of resistant cells, the growth of xenograft tumors were examined. A well-characterized ovarian cancer MDR cell line SKOV-3TR was chosen for in vivo studies. […] Tumors were measured twice a week with a digital caliper. Tumor volume (mm^3) was calculated as (W^2×L)/2, where W is width and L is length (FIG. 5A). Representative images of dissected tumor tissues from treated nude mice.
# [5] = test system: SKOV-3TR; test: MTT cytotoxicity assay and reversal of MDR in SKOV-3TR; assay type: cell-based, human
# Source text: as §1, §2
# Structure and activity relationship (SAR) of the four NSC23925 isomers for reversing MDR were evaluated in human ovarian cancer MDR cell line SKOV-3TR by MTT assay (FIGS. 1A-D). Cells were treated with the paclitaxel and NSC23925 diastereomers NSC23925a (FIG. 1A), NSC23925b (FIG. 1B), NSC23925c (FIG. 1C) and NSC23925d (FIG. 1D) in RPMI1640 complete media at the indicated concentrations. The relative sensitivity of each line to paclitaxel was determined by MTT analysis 6 days post-treatment.
# [6] = test system: MCF-7adr; test: M30-Apoptosense ELISA apoptosis assay in MCF-7adr; assay type: cell-based, human; conditions: NSC23925b 1 μM with doxorubicin 0.5 μM, 72 hours
# Description: as §3, §4
smiles,measurement,setting,value
"COc1ccc(-c2cc([C@H](O)[C@H]3CCCCN3)c3ccccc3n2)cc1 [NSC23925b, (2-(4-methoxyphenyl)quinolin-4-yl)(piperidin-2-yl)methanol hydrochloride]",fold-reversal of drug resistance,"[1]; Doxorubicin, NSC23925b 0.1 μM",1.4 fold
same,fold-reversal of drug resistance,"[1]; Doxorubicin, NSC23925b 0.5 μM",4 fold
same,fold-reversal of drug resistance,"[1]; Doxorubicin, NSC23925b 1 μM",15 fold
same,"reverse paclitaxel, doxorubicin, and mitoxantrane resistance",[1]; MTT 6 days post-treatment,able to reverse
same,fold-reversal of drug resistance,"[1]; Mitoxantrane, NSC23925b 0.1 μM",1.1 fold
same,fold-reversal of drug resistance,"[1]; Mitoxantrane, NSC23925b 0.5 μM",3 fold
same,fold-reversal of drug resistance,"[1]; Mitoxantrane, NSC23925b 1 μM",6 fold
same,fold-reversal of drug resistance,"[1]; Paclitaxel, NSC23925b 0.1 μM",1.3 fold
same,fold-reversal of drug resistance,"[1]; Paclitaxel, NSC23925b 0.5 μM",4 fold
same,fold-reversal of drug resistance,"[1]; Paclitaxel, NSC23925b 1 μM",12 fold
same,"cell death / apoptosis, combination versus either drug alone",[2],significantly greater cell death
same,solubility in other solvents,"[3]; either, ethyl acetate, chloroform, dichloromethane, acetone, tetrahydrofuran, cyclohexane, cyclopentane, hexanes, pentane",not soluble
same,solubility in methanol,[3]; methanol,soluble
same,5 milligram solubility in methanol,[3]; volume of methanol for 5 milligram,450 µL
same,reversal of resistance to paclitaxel in xenograft model,[4]; NSC23925b 50 mg/kg with paclitaxel,almost completely reverse resistance to paclitaxel
same,toxicity on the basis of animal weight and mortality,[4]; NSC23925b administered alone,no significant toxicity
same,effect on paclitaxel-induced toxicity,[4]; NSC23925b combined with paclitaxel,reducing paclitaxel-induced toxicity in some animals
same,"inhibitory effect on tumor growth, combination versus single agents",[4]; NSC23925b with paclitaxel (20 mg/kg) i.p. twice a week for two weeks,significantly greater inhibitory effect
same,"effect on paclitaxel resistant tumor cell growth, single agent","[4]; alone, i.p. twice a week for two weeks, paclitaxel 20 mg/kg or NSC23925b 40 mg/kg",no significant effects
same,fold-reversal of drug resistance,"[5]; Doxorubicin, NSC23925b 0.1 μM",2 fold
same,fold-reversal of drug resistance,"[5]; Doxorubicin, NSC23925b 0.5 μM",9 fold
same,fold-reversal of drug resistance,"[5]; Doxorubicin, NSC23925b 1 μM",32 fold
same,fold-reversal of drug resistance,"[5]; Mitoxantrane, NSC23925b 0.1 μM",1.2 fold
same,fold-reversal of drug resistance,"[5]; Mitoxantrane, NSC23925b 0.5 μM",2.6 fold
same,fold-reversal of drug resistance,"[5]; Mitoxantrane, NSC23925b 1 μM",8 fold
same,fold-reversal of drug resistance,"[5]; Paclitaxel, NSC23925b 0.1 μM",2 fold
same,fold-reversal of drug resistance,"[5]; Paclitaxel, NSC23925b 0.5 μM",7 fold
same,fold-reversal of drug resistance,"[5]; Paclitaxel, NSC23925b 1 μM",28 fold
same,potency of isomer on reversing drug resistance,"[5]; with paclitaxel, MTT 6 days post-treatment",most potent isomer
same,"cell death / apoptosis, combination versus either drug alone",[6],significantly greater cell death

# Reference: patent publication US20140371165A1, “Identification of NSC23925 Isomers to Reverse Multidrug Resistance in Human Cancers” (priority 2012, published 2014)
